Assays:
[1] = in water; cited from earlier work
TNF-α = TNF-α concentration in colonic samples of colitis-induced mice (ELISA); format: in vivo, C57BL/6 mice; conditions: oral, 10 mg/kg once daily for 8 days, DSS colitis mice, compared to control group
Experimental: (§1) Before inducing colitis, 8-week-old C57BL/6 mice were raised under standard conditions at 21° C. to 22° C. in a 12-hour light/dark cycle for 7 days. On the day of the experiment (Day 0), mice were randomly divided into five groups: a healthy control group and four experimental groups [dextran sodium sulfate administration group (DSS), dextran sodium sulfate and phosphate-buffer saline (PBS) administration group (DSS+PBS), dextran sodium sulfate and infliximab administration group (DSS+IFX), and dextran sodium sulfate and EFA-AC-IFX administration group (DSS+EFA-AC-IFX)]. Colitis was induced in mice by adding 2.0% (w/v) dextran sodium sulfate to drinking water.
(§2) To investigate the therapeutic effect of nanoparticles, colitis-induced mice in each experimental group were orally administered with 200 μL of PBS, infliximab (10 mg/kg), or EFA-AC-IFX (10 mg/kg) once daily for 8 days. On Day 8, drinking water containing dextran sodium sulfate was replaced with pure water. During the experiment, changes in body weight, stool consistency, and the presence of blood in the stool or anus were checked daily. […]
The level of TNF-α, one of the important inflammatory mediators involved in the pathogenesis of ulcerative colitis, is increased by inducing colitis in mice. Therefore, the concentration of TNF-α in colonic samples obtained from each experimental group was quantified using a TNF-α ELISA kit.

colitis-induced mice = assay: in vivo efficacy in dextran sodium sulfate colitis-induced mice; design: species or system C57BL/6 mice; conditions: oral, 10 mg/kg once daily for 8 days, DSS colitis mice, day 9
Experimental: as §1
as §2, with “water.” for “water. During the experiment, changes in body weight, stool consistency, and the presence of blood in the stool or anus were checked daily.”
To evaluate the therapeutic efficacy of EFA-AC-IFX for colitis, mouse colon tissues were histologically analyzed using hematoxylin-eosin (H&E) staining. […] The severity of colitis in each colonic section was assessed using a blinded approach by measuring mucosal features, such as epithelial damage, mucosal edema, and inflammatory cell infiltration of the mucosa.

| Compound | water solubility [1] [mg/g] | concentration of TNF-α in colonic samples (TNF-α) | colon length (colitis-induced mice) [cm] |
| --- | --- | --- | --- |
| Nc1nc2ncc(CNc3ccc(C(=O)N[C@@H](CCC(=O)O)C(=O)O)cc3)nc2c(=O)[nH]1 [folic acid] | 0.0016 | – | – |
| Infliximab | – | significantly increased compared to the control group | 6.2±0.25 |

From patent publication US20250281625A1, “FOLIC ACID-CONJUGATED AMINOCLAY BASED NANOCOMPOSITES FOR THE SITE-SPECIFIC DRUG DELIVERY, METHOD FOR THEIR PREPARATION AND THEIR USE” (Dongguk University Industry-Academic Cooperation Foundation, priority 2021, published 2025)
